Data: patent US20220378711A1, “PH-Responsive Nanoparticles for Treating Cancer” (United States Government as represented by the Department …, priority 2021, published 2022)
Read-outs that look alike come from different tables or passages of the source.

Experiments:
[1] = cited from earlier work
[2] = LC-MS drug concentration in tumor xenograft tissue; type: in vivo, nude mice; conditions: nude, mouse, intraperitoneal, injected ip as drug-pH NPs, 75 mg/kg SCH772984, 40 mg/kg GEM, read-out: drug concentration in tumor tissues
Method: LC-MS analysis of drugs was performed on a Q-TOF Synapt G2S mass spectrometer (Waters, Milford, Mass.) coupled with an Acquity UPLC system (Waters). Drugs were resolved on an ACUITY UPLC HSS T3 column ([…], 100 Å pore diameter, 2.1 mm×150 mm, Waters) with an acetonitrile/water gradient containing 0.1% formic acid. GEM was detected as [M+H]+, and SCH 772984 was detected as [M+2H]2+ in a positive ESI mode.
Next, in vivo studies to obtain information on the systemic stability and tumor enrichment capacity of pH NPs were performed. The fate of drug-encapsulated nanoparticles in the MIA PaCa-2-pancreatic tumor xenograft model in immune-compromised nude mice was studied. Upon intraperitoneal (ip) administration of free or drug-pH NPs [75 mg/kg for SCH772984 and 40 mg/kg for GEM; human equivalent dose (HED)] for 48 h in tumor-bearing mice (N=3), the drug concentrations in tumor tissues was measured using LC-MS.

MIA PaCa-2 cells [3] = assay: Clonogenic survival assay; type: cell-based
Method: PDAC cells were seeded at a density of 400 cells/well in 6-well plates. The following day, cells were treated with nanoencapsulated ERKi at a concentration of 0.01 nM, carrier-encapsulated GEM at a concentration of 0.1 nM, and a combination of 0.01 nM encapsulated ERKi, and 0.1 nM encapsulated GEM for 12 days. After the incubation time, the medium was removed, and the cells were fixed with 3:1 methanol/glacial acetic acid for 15 min at room temperature. After the fixing reagent was removed, the cells were stained with 0.5% crystal violet solution (in methanol) for 15 min. The plates were washed thoroughly with tap water to remove residual crystal violet. The plates were dried overnight, and the colonies were counted using Colony Doc-It imaging station using Colony Doc-It imaging software.
To examine the link between ERK and GEM resistance in PDAC cells, a Clonogenic assay was performed for anchorage-dependent growth in MIA PaCa-2 and Panc-1 cell lines in the presence or absence of free or encapsulated ERKi (10 nM) or GEM (100 nM) alone or a combination of these two drugs for 12 days. The half-effective doses of encapsulated ERKi or encapsulated GEM was purposely selected from the preceding studies shown in FIG. 6 and FIG. 7 because these doses of free-drugs have minimal or no effect on PDAC cell viability (FIG. 6) and ERK phosphorylation (FIG. 7).

[4] = cited from earlier work; remark: listed apart in the source
MIA PaCa-2 cells [5] = assay: MTT cell viability and CompuSyn synergy assay; type: cell-based; conditions: MIA PaCa-2, 72 h MTT
Method: (§1) PDAC cells (5000 cells/well) were seeded in 96-well plates and, 24 h later, cells were treated with different concentrations of nanocapsulated SCH 772984, DEM, or their combinations. Control cells were treated with an equivalent level of DMSO. Drug concentrations were optimized for the cell-based assay of the individual drug. At 72 h after treatment, the cell viability assay was performed by adding 10 μL of the 3-(4,5-dimethylthiazol-2-yl)-2,5-diphenyltetrazolium bromide (MTT) reagent to each well, and the plates were incubated for 3 h at 37° C. The MTT reagent was removed, DMSO (100 μL/well) was added to solubilize the crystals, and absorbance was measured at 570 nm. Synergy analysis was performed using CompuSyn software.
(§2) The data was fitted in CompuSyn. These two cell lines were selected because MIA PaCa-2 cells are responsive to ERKi and GEM compared to Panc-1. […] However, consistent with previous studies, the Panc-1 cells were more resistant to these drugs compared to MIA PaCa-2 cells.

Panc-1 cells = assay: MTT cell viability and CompuSyn synergy assay; type: cell-based; conditions: Panc-1, 72 h MTT
Method: as §1, §2

[6] = tested on: ERK phosphorylation (p44/p42 MAPK/ERK1/2); assay: Western blot of ERK activity in PDAC cells; type: cell-based
Method: Western blot analysis was the same as described in Mol. Cancer Ther. 2019, 18, 788-800. Briefly, cells were seeded at a cell density of 500,000 cells/well in 6-well plates. About 60% of confluent cells were treated with nanoparticles alone (NPA), free ERKi (FEI), or encapsulated ERKi (EEI) for 3 h at 0.001, 0.01, 0.1, 1, and 10 nM concentrations of the drug. Cells were lysed in a lysis buffer (50 mmol/L Tris pH7.4, 150 mmol/L sodium chloride, 1% NP-40, 0.25% sodium deoxycholate, 1 mmol/L EDTA) containing PMSF and Protease/Phosphatase Inhibitor Cocktail (Cell Signaling Technologies). Proteins were quantified with the Pierce BCA protein assay kits (Thermo Fisher Scientific). Under reducing conditions, a […] sample was loaded onto 10% SDS gels for the separation of proteins, and the resulting gel was transferred onto a […] nitrocellulose membrane. The blots were then immersed in a 5% blocking buffer made in Tris base and Tween-20 followed by incubation with antibodies against total-ERK and phospho-ERK primary antibodies (Cell Signaling Technologies; diluted in blocking buffer at 1:1000) overnight. The secondary antibody was incubated for 1 h at room temperature. The signal from the blots was detected using the Super Signal West Femto Maximum Sensitivity substrate (Thermo Fisher).
To determine the functional efficacy of ERKi-pH NPs, the question of whether encapsulated ERKi SCH 772984 can suppress the ERK activity by suppressing ERK phosphorylation (p44/p42 MAPK/ERK1/2) in PDAC cells was investigated. To do so, MIA PaCa-2 cells were exposed to nanoparticles free of SCH 772984 or encapsulated with SCH 772984 with different doses (0.1-100 nM) for 3 hours. Following treatment, total, phospho-ERK, RSK, and GAPDH were determined using Western blot analysis in the cell extracts.

concentration at 48 h [2] [ng/g] | IC50 of free drug compared with encapsulated drug (MIA PaCa-2 cells [5]) | IC50 of free drug compared with encapsulated drug (Panc-1 cells) | SMILES | pKa [1] | effect of ERKi on GEM's effect on PDAC cells (MIA PaCa-2 cells [3]; ERKi at minimum inhibitory concentration (0.01 nM)) | solubility [4] | solubility ([4]; listed as unencapsulated ERKi) | change of pERK level, less than 10 nM encapsulated ERKi ([6]; 10 nM, MIA PaCa-2) [fold] | total ERK and total RSK expression ([6]; MIA PaCa-2, 3 hours) | p-ERK and p-RSK levels ([6]; MIA PaCa-2, 3 hours, dose-dependent) | concentration at which inhibitory effect on p-ERK/p-RSK was first detected ([6]; MIA PaCa-2, 3 hours, doses 0.1-100 nM) [nM] | survival and colony-forming ability (MIA PaCa-2 cells [3]; MIA PaCa-2, 12 days, ERKi 10 nM, GEM 100 nM)
– | – | – | CCCCNCCNCCCC [N,N′-dibutylethylenediamine] | 4.0 | – | – | – | – | – | – | – | –
~2 | markedly higher | markedly higher | O=C(Nc1ccc2[nH]nc(-c3ccncc3)c2c1)[C@@H]1CCN(CC(=O)N2CCN(c3ccc(-c4ncccn4)cc3)CC2)C1 [SCH 772984] | – | significantly enhances | low water solubility | extremely poor solubility | 2.4 | did not affect | markedly decreased | 100 | –
~4 | markedly higher | markedly higher | Nc1ccn([C@@H]2O[C@H](CO)[C@@H](O)C2(F)F)c(=O)n1 [GEM, gemcitabine] | – | – | – | – | – | – | – | – | decrease the colony-forming ability of these cells significantly
